These results are taken from ChEMBL document CHEMBL4819120, “Identification of non-covalent 3C-like protease inhibitors against severe acute respiratory syndrome coronavirus-2 via virtual screening of a Korean compound library” (Bioorg Med Chem Lett, 2021).

Series [1] is described as follows: Inhibition of SARS-CoV-2 3CL protease using DABCYL-KTSAVLQ-SGFRKME-EDANS fluorogenic peptide as substrate by fluorescence assay. Also noted: species or system Severe acute respiratory syndrome coronavirus 2.
A further series has as its system Vero C1008. The series can be described thus: Cytotoxicity against African green monkey Vero E6 cells. It counts as cell-based. As to conditions: chlorocebus sabaeus.
The test system of a further series is SARS-CoV-2. The series can be described thus: microbe, parasite or virus in culture. As to conditions: Severe acute respiratory syndrome coronavirus 2, Vero C1008.

Description for SARS-CoV-2: Antiviral activity against SARS-CoV-2 infected in monkey Vero E6 cells

As a reminder, the IC50 is the concentration needed to halve the response being measured. A word on the CC50: it is the concentration that lowers cell viability or growth by half. What is called EC50 is the midpoint of the concentration-response curve. `Cc1cc(C)cc(Nc2nc(C)cc3nn(CC(=O)Nc4cc(F)ccc4F)c(=O)n23)c1`: it took 8 µM to reach half-maximal inhibition in series [1] (IC50). Also, the CC50 in the series with Vero C1008 amounted to 469 µM. This compound had an EC50 with SARS-CoV-2 of 141 µM.

For `Cc1ccc(Cl)cc1NC(=O)Cn1nc2c(Oc3ccc(C(C)C)cc3)nccn2c1=O`, in series [1], half-maximal inhibition (IC50) required 8.9 µM. Same read-out and setting: next, `Cc1ccc(Cn2c(=O)c3ccccc3n3c(=O)n(CC(=O)Nc4ccc(F)cc4F)nc23)cc1`: 9.5 µM; `Cc1cc(C)cc(Nc2nc(C)cc3nn(CC(=O)Nc4ccccc4F)c(=O)n23)c1`: 10.9 µM. Compound `O=C(Cn1c2ccccc2n2c(=O)cc(-c3ccc(Cl)cc3)nc12)Nc1ccc(F)cc1F` showed an IC50 in series [1] of 5.7 µM. The midpoint of cytotoxicity in the series on Vero C1008, the CC50, lay at 454 µM. This compound also yielded an EC50 with SARS-CoV-2 of 39.9 µM. As for `Cc1cc2nn(CC(=O)Nc3ccccc3F)c(=O)n2c(Nc2ccccc2C)n1`, the concentration for half-maximal inhibition (IC50) in series [1] was determined as 8.7 µM. The same measure, in the same setting: next, `CCc1ccc(NC(=O)Cn2nc3n(Cc4ccc(F)cc4)c(=O)c4ccccc4n3c2=O)cc1`: 12.1 µM.
